# From patent publication US20240299412A1, “DRUG FORMULATIONS OF 4-(3,3-DIFLUORO-2,2-DIMETHYL-PROPANOYL) -3,5-DIHYDRO-2H-PYRIDO[3,4-f][1,4]OXAZEPINE-9-CARBONITRILE” (Genzyme Corporation, priority 2023, published 2024)
# Assays:
# Format in all cases: physicochemical
# [1] = pKa measurement (Sirius T3, UV metric method); details: MeOH as solvent, Yasuda-Shedlovsky extrapolation, ionic strength 0.176M, 28.9° C., to be taken as reference (effective range pH 2-12)
# Description: pKa. The pKa was measured by a Sirius pKa log P/D tester (model: T3) with a UV detector (UV metric method) using MeOH as solvent.
# In addition, the pKa value of Compound (1) starting material was measured to be 1.68 by a Sirius pKa log P/D tester (model: T3) with a UV detector (UV metric method) using MeOH as solvent. The pKa value should be taken as reference because the effective pH range of UV metric method is pH 2-12.
# Cohesion evaluation = assay: Cohesion evaluation
# Source text: Different options were explored to improve the cohesion property of the tablet, for example, by change of lactose and mannitol grades (standard grade in place of Spray Dried grade), using anhydrous lactose in place of monohydrate lactose Spray-Dried, using different ratios of lactose/mannitol, or using pregelatinized corn starch instead of mannitol, but only a decrease of tablet cohesion was observed.
# Solid form screening = details: 96 solid form screening experiments
# Description: A total of 96 solid form screening experiments were performed using different crystallization or solid transformation methods.
structure (smiles),measurement,setting,value
"CC(C)(C(=O)N1CCOc2c(C#N)cncc2C1)C(F)F [Compound 1, 4-(3,3-difluoro-2,2-dimethyl-propanoyl)-3,5-dihydro-2H-pyrido[3,4-f][1,4]oxazepine-9-carbonitrile]",pKa,[1],1.68
same,cohesion property of the drug substance,Cohesion evaluation,very low cohesion property
same,crystal forms observed from screening,Solid form screening,Only one crystal form
